Drawing on ChEMBL document CHEMBL5727622, “Heterocyclic compounds used as FGFR inhibitors” (2020), this text covers IC50 for nine compounds.

pIC50: −log10 of the molar value.

For assay [1], the target named is Fibroblast growth factor receptor 1 (Homo sapiens, UniProt P11362). In words: Inhibition Assay: FGFR1: The in vitro activity of FGFR1 was determined by assaying the phosphorylation level of the substrate in the kinase reaction, by means of an HTRF kinase assay kit. The reaction buffer comprised the following components: 5-fold diluted Enzymatic buffer/kinase 5× (main ingredient: 50 mM HEPES, pH 7.0), 5 mM MgCl2, 1 mM DTT; the human recombinant FGFR1 catalytic structural domain protein (amino acids 308-731) was purified by the company itself, diluted with the reaction buffer to a 0.6 ng/μL kinase solution; the substrate reaction solution comprised a biotin labeled tyrosine kinase substrate diluted with the reaction buffer to 400 nM , and 40 μM ATP, and the assay solution comprised an Eu3+ labeled cage-shaped antibody diluted with the assay buffer to 0.125 ng/μL, and 25 nM streptavidin labeled XL665. (In general: TR-FRET usually uses a lanthanide donor and a delayed reading to cut background.)

For assay [2], the target named is Fibroblast growth factor receptor 2 (Homo sapiens, UniProt P21802). In words: Inhibition Assay: FGFR2: The in vitro activity of FGFR2 was determined by assaying the phosphorylation level of the substrate in the kinase reaction, by means of an HTRF kinase assay kit. The reaction buffer comprised the following components: 5-fold diluted Enzymatic buffer/kinase 5× (main ingredient: 50 mM HEPES, pH 7.0), 5 mM MgCl2, 1 mM DTT; the human recombinant FGFR2 catalytic structural domain protein (amino acids 400-821) was commercially available from Beijing Sino Biological Inc., diluted with the reaction buffer to a 0.045 ng/μL kinase solution; the substrate reaction solution comprised a biotin labeled tyrosine kinase substrate diluted with the reaction buffer to 800 nM, and 50 μM ATP, and the assay solution comprised an Eu3+ labeled cage-shaped antibody (Cisbio, Catalog number 61T66KLB) diluted with the assay buffer (Cisbio, Catalog number 62SDBRDF) to 0.125 ng/μL, and 50 nM streptavidin labeled XL665.

Assay [3] concerns the target Fibroblast growth factor receptor 4 (Homo sapiens, UniProt P22455). In words: Inhibition Assay: FGFR4:The in vitro activity of FGFR4 was determined by assaying the phosphorylation level of the substrate in the kinase reaction, by means of an HTRF kinase assay kit. The reaction buffer comprised the following components: 5-fold diluted Enzymatic buffer/kinase 5×(main ingredient: 50 mM HEPES, pH 7.0), 5 mM MgCl2, 1 mM DTT; the human recombinant FGFR4 catalytic structural domain protein (amino acids 460-802), diluted with the reaction buffer to a 0.5 ng/μL kinase solution; the substrate reaction solution comprised a biotin labeled tyrosine kinase substrate diluted with the reaction buffer to 500 nM , and 90 μM ATP, and the assay solution comprised an Eu3+ labeled cage-shaped antibody diluted with the assay buffer to 0.125 ng/μL, and 31.25 nM streptavidin labeled XL665).

Assay [4] addresses Fibroblast growth factor receptor 3 (Homo sapiens, UniProt P22607). In words: Inhibition Assay: FGFR3: The in vitro activity of FGFR3 was determined by assaying the phosphorylation level of the substrate in the kinase reaction, by means of an HTRF kinase assay kit. The reaction buffer comprised the following components: 5-fold diluted Enzymatic buffer/kinase 5×(main ingredient: 50 mM HEPES, pH 7.0), 5 mM MgCl2, 1 mM DTT; the human recombinant FGFR3 catalytic structural domain protein (amino acids 399-806), diluted with the reaction buffer to a 0.3 ng/μL kinase solution; the substrate reaction solution comprised a biotin labeled tyrosine kinase substrate diluted with the reaction buffer to 1000 nM, and 90 μM ATP, and the assay solution comprised an Eu3+ labeled cage-shaped antibody diluted with the assay buffer to 0.125 ng/μL, and 62.5 nM streptavidin labeled XL665.

Sequence of Fibroblast growth factor receptor 4 (P22455 whole entry, the tested form may be a part): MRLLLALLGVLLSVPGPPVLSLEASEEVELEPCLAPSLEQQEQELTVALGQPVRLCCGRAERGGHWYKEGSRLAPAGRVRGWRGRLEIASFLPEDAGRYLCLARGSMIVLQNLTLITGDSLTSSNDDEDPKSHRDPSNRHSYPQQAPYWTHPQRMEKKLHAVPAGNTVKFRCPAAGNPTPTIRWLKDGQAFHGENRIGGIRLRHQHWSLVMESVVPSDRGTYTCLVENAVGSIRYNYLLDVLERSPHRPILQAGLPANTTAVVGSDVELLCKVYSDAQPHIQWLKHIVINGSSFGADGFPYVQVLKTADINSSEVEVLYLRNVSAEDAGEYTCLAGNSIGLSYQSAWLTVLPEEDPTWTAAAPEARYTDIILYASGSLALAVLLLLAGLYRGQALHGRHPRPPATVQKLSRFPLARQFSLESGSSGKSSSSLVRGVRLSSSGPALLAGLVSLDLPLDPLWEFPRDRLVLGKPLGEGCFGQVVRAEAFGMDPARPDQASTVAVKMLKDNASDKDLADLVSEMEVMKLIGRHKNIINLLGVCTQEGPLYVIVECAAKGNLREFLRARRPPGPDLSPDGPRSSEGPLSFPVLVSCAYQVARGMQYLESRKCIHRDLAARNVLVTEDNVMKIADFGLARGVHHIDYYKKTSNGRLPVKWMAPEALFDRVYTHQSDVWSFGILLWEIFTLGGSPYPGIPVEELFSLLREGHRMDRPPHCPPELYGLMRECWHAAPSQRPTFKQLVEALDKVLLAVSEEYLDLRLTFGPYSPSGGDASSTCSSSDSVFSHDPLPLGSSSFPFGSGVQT
Sequence of Fibroblast growth factor receptor 3 (P22607 whole entry, the tested form may be a part): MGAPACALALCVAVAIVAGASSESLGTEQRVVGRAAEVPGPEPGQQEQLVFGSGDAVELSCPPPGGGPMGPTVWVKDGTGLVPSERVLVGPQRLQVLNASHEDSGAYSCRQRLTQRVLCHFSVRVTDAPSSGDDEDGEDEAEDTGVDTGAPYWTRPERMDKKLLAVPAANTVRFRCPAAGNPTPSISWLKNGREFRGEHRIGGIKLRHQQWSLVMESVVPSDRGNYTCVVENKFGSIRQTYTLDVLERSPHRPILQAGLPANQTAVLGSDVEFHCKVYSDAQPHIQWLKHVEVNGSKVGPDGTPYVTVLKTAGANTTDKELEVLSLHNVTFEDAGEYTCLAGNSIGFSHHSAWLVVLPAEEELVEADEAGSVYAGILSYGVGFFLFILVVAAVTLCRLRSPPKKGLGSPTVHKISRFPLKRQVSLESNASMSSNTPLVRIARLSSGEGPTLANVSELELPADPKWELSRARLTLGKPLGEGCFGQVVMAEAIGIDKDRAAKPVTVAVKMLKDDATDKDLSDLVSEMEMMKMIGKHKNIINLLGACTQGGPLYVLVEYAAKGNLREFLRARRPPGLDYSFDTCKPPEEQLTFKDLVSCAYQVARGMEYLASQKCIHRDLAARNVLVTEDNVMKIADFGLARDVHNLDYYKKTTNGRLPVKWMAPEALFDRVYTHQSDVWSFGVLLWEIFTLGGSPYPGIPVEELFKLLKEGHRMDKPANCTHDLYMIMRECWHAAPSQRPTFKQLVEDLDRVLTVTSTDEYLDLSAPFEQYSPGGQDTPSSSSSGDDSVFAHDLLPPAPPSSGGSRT
Sequence of Fibroblast growth factor receptor 2 (P21802 whole entry, the tested form may be a part): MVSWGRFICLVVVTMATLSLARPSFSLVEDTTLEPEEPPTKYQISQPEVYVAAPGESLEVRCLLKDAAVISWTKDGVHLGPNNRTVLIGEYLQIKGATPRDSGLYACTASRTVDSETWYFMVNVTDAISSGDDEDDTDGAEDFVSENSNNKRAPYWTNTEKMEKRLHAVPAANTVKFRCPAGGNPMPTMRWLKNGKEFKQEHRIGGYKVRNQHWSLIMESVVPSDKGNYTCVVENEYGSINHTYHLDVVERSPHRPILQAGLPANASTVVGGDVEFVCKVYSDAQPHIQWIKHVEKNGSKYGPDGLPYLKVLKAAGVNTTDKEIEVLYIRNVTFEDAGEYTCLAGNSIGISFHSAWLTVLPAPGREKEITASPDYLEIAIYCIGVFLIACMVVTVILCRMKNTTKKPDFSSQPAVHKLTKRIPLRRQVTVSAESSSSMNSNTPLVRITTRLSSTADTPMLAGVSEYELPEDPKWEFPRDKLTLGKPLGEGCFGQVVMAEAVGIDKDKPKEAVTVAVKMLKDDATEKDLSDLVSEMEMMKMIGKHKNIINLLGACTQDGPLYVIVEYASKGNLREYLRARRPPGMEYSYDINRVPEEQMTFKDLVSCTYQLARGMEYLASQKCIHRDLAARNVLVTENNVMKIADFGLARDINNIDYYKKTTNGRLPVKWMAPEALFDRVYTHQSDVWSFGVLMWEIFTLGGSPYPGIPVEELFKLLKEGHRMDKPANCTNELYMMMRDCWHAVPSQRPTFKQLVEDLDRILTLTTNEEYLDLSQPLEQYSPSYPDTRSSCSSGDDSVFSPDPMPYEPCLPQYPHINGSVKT
Sequence of Fibroblast growth factor receptor 1 (P11362 whole entry, the tested form may be a part): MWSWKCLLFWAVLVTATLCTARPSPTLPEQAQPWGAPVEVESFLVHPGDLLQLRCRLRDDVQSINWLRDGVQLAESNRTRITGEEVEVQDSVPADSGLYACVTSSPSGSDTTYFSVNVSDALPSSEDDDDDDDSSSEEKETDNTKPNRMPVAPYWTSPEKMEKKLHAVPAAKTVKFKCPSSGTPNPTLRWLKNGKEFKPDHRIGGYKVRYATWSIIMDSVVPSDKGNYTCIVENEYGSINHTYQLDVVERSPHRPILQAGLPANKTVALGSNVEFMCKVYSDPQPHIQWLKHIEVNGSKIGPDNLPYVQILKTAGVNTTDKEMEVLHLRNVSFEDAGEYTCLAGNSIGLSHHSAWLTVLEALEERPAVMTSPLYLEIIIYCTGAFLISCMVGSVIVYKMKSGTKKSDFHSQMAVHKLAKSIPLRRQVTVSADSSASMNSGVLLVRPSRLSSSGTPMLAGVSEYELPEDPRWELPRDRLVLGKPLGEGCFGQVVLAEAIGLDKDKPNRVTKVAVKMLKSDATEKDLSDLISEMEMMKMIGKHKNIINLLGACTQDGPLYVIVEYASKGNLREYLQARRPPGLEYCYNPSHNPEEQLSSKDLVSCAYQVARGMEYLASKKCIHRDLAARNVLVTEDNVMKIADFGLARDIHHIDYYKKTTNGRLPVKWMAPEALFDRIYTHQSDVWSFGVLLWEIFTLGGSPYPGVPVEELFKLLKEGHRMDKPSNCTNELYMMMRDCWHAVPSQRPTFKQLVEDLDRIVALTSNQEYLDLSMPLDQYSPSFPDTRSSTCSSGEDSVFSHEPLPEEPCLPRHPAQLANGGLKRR

Regarding `COC[C@H](C)Oc1cc(NC(=O)N(C)c2ccc(CN3CCN(C)CC3=O)c(C=O)n2)ncc1C#N`, the pIC50 is below 6.00 in assay [1], below 6.00 in assay [2], above 8.00 in assay [3] and below 6.00 in assay [4].

Turning to `COC[C@@H](C)Oc1cc(NC(=O)N(C)c2ccc(CN3CCN(C)CC3=O)c(C=O)n2)ncc1C#N`, the pIC50 in assay [1] was below 6.00; in assay [2], below 6.00; in assay [3], above 8.00; in assay [4], below 6.00.

For the compound `COCCOc1cc(NC(=O)N(C)c2ccc(CN3CCOCC3=O)c(C=O)n2)ncc1C#N`, the pIC50 in assay [1] is below 6.00; in assay [2], below 6.00; in assay [3], above 8.00; in assay [4], below 6.00.

With `C[C@@H](CO)Oc1cc(NC(=O)N(C)c2ccc(CN3CCN(C)CC3=O)c(C=O)n2)ncc1C#N`, the pIC50 in assay [1] was below 6.00; in assay [2] it was below 6.00; in assay [3], above 8.00; in assay [4], below 6.00.

As for `CC(C)Nc1cc(NC(=O)N(C)c2ccc(CN3CCOCC3=O)c(C=O)n2)ncc1C#N`, the pIC50 is below 6.00 in assay [1], below 6.00 in assay [2], above 8.00 in assay [3] and below 6.00 in assay [4].

On to `CC(C)Oc1cc(NC(=O)N(C)c2ccc(CN3CCN(C)CC3=O)c(C=O)n2)ncc1C#N`, for which the pIC50 in assay [1] is below 6.00; in assay [2], below 6.00; in assay [3], above 8.00; in assay [4], below 6.00.

`CN1CCN(Cc2ccc(N(C)C(=O)Nc3cc(Cl)c(C#N)cn3)nc2C=O)C(=O)C1`: the pIC50 in assay [1], in assay [2] and in assay [4] was below 6.00 in each case.

Regarding `COCCNc1cc(NC(=O)N(C)c2ccc(CN3CCOCC3=O)c(C=O)n2)ncc1C#N`, the negative logarithm of the IC50 (pIC50) in assay [1] is below 6.00; in assay [2], below 6.00; in assay [3], above 8.00; in assay [4], below 6.00.

`CC(C)Nc1cc(NC(=O)N(C)c2ccc(CN3CCN(C)CC3=O)c(C=O)n2)ncc1C#N`: the pIC50 was below 6.00 in assay [1], below 6.00 in assay [2], above 8.00 in assay [3] and below 6.00 in assay [4].

The term pIC50 denotes the IC50 on a negative log10 scale, so that one unit is a factor of ten.
